According to patent publication US20250243189A1, “HERBICIDAL IMIDAZOLE-CONTAINING COMPOUNDS” (SYNGENTA CROP PROTECTION AG, priority 2022, published 2025):

How the values were obtained:
Type in all cases: in vivo
Details in all cases: 250 g/ha, evaluated after 13 days, five-point scale
[1] = tested on: AMAPA; experiment: Post-emergence herbicidal glasshouse test
Protocol: [Worded in the source for another organism; this organism is reported under the same test.] (§1) Seeds of a variety of test species are sown in standard soil in pots Amaranthus retoflexus (AMARE), Echinochloa crus-galli (ECHCG), Setaria faberi (SETFA)). After cultivation for one day (pre-emergence) or after 8 days cultivation (post-emergence) under controlled conditions in a glasshouse (at 24/16° C., day/night; 14 hours light; 65% humidity), the plants are sprayed with an aqueous spray solution derived from the formulation of the technical active ingredient in acetone/water (50:50) solution containing 0.5% Tween 20 (polyoxyethelyene sorbitan monolaurate, CAS RN 9005-64-5). Compounds are applied at 250 g/ha unless otherwise stated. The test plants are then grown in a glasshouse under controlled conditions in a glasshouse (at 24/16° C., day/night; 14 hours light; 65% humidity) and watered twice daily. After 13 days for pre and post-emergence, the test is evaluated for the percentage damage caused to the plant. The biological activities are shown in the following table on a five-point scale (5=81-100%; 4=61-80%; 3=41-60%; 2=21-40%; 1=0-20%).

[2] = tested on: Amaranthus retoflexus (AMARE); experiment: Post-emergence herbicidal glasshouse test
Protocol: as §1

[3] = tested on: Echinochloa crus-galli (ECHCG); experiment: Post-emergence herbicidal glasshouse test
Protocol: as §1

[4] = tested on: IPOHE; experiment: Post-emergence herbicidal glasshouse test
Protocol: as §1

[5] = tested on: Setaria faberi (SETFA); experiment: Post-emergence herbicidal glasshouse test
Protocol: as §1

[6] = tested on: AMAPA; experiment: Pre-emergence herbicidal glasshouse test
Protocol: [Worded in the source for another organism; this organism is reported under the same test.] as §1

[7] = tested on: Amaranthus retoflexus (AMARE); experiment: Pre-emergence herbicidal glasshouse test
Protocol: as §1

[8] = tested on: Echinochloa crus-galli (ECHCG); experiment: Pre-emergence herbicidal glasshouse test
Protocol: as §1

[9] = tested on: IPOHE; experiment: Pre-emergence herbicidal glasshouse test
Protocol: as §1

[10] = tested on: Setaria faberi (SETFA); experiment: Pre-emergence herbicidal glasshouse test
Protocol: as §1

Row | SMILES | percentage damage caused to the plant, AMAPA [1] | percentage damage caused to the plant, AMARE [2] | percentage damage caused to the plant, ECHCG [3] | percentage damage caused to the plant, IPOHE [4] | percentage damage caused to the plant, SETFA [5] | percentage damage caused to the plant, AMAPA [6] | percentage damage caused to the plant, AMARE [7] | percentage damage caused to the plant, ECHCG [8] | percentage damage caused to the plant, IPOHE [9] | percentage damage caused to the plant, SETFA [10]
1 | Cc1cc(-c2nc(C(F)(F)F)cn2Cc2ncc(Cl)cn2)n(C)n1 [Compound 1.024] | 5 (5=81-100%) | 5 (5=81-100%) | 5 (5=81-100%) | 5 (5=81-100%) | 5 (5=81-100%) | 5 (5=81-100%) | 5 (5=81-100%) | 5 (5=81-100%) | 5 (5=81-100%) | 5 (5=81-100%)
2 | FC(F)(F)c1cn(Cc2ncc(Cl)cn2)c(-c2cnc(Cl)s2)n1 [Compound 1.008] | 5 (5=81-100%) | 5 (5=81-100%) | 5 (5=81-100%) | 4 (4=61-80%) | 5 (5=81-100%) | 5 (5=81-100%) | 5 (5=81-100%) | 5 (5=81-100%) | 5 (5=81-100%) | 5 (5=81-100%)
3 | FC(F)(F)c1cn(Cc2ncc(Cl)cn2)c(-c2cnn(C3CC3)c2)n1 [Compound 1.015] | 4 (4=61-80%) | 5 (5=81-100%) | 4 (4=61-80%) | 5 (5=81-100%) |  | 5 (5=81-100%) | 5 (5=81-100%) | 5 (5=81-100%) | 5 (5=81-100%) | 
4 | FC(F)(F)c1cn(Cc2ncc(Cl)cn2)c(-c2sccc2Cl)n1 [Compound 1.002] | 1 (1=0-20%) | 1 (1=0-20%) | 1 (1=0-20%) | 1 (1=0-20%) |  | 2 (2=21-40%) | 2 (2=21-40%) | 1 (1=0-20%) | 1 (1=0-20%) | 
5 | Cn1cc(Cl)c(-c2nc(C(F)(F)F)cn2Cc2ncc(Cl)cn2)n1 [Compound 1.043] | 1 (1=0-20%) | 1 (1=0-20%) | 1 (1=0-20%) | 1 (1=0-20%) |  | 1 (1=0-20%) | 1 (1=0-20%) | 1 (1=0-20%) | 1 (1=0-20%) | 
6 | FC(F)(F)c1cn(Cc2ncc(Cl)cn2)c(-c2ncco2)n1 [Compound 1.019] | 1 (1=0-20%) | 1 (1=0-20%) | 1 (1=0-20%) | 1 (1=0-20%) |  | 1 (1=0-20%) | 1 (1=0-20%) | 1 (1=0-20%) | 1 (1=0-20%) | 
7 | N#Cc1ccc(Cn2cc(C(F)(F)F)nc2-c2ccc(Cl)s2)nc1 [Compound 1.049] | 5 (5=81-100%) | 5 (5=81-100%) | 4 (4=61-80%) | 4 (4=61-80%) |  | 5 (5=81-100%) | 5 (5=81-100%) | 4 (4=61-80%) | 5 (5=81-100%) | 
8 | FC(F)c1cn(Cc2ncc(Cl)cn2)c(-c2ccc(Cl)s2)n1 [Compound 1.058, 5-chloro-2-[[2-(5-chloro-2-thienyl)-4-(difluoromethyl)imidazol-1-yl]methyl]pyrimidine] | 5 (5=81-100%) | 5 (5=81-100%) | 4 (4=61-80%) | 4 (4=61-80%) |  | 5 (5=81-100%) | 5 (5=81-100%) | 5 (5=81-100%) | 5 (5=81-100%) | 
9 | FC(F)(F)c1cn(Cc2ncc(Cl)cn2)c(-c2csc(Cl)n2)n1 [Compound 1.009] | 2 (2=21-40%) | 2 (2=21-40%) | 1 (1=0-20%) | 1 (1=0-20%) |  | 3 (3=41-60%) | 4 (4=61-80%) | 1 (1=0-20%) | 1 (1=0-20%) | 
10 | FC(F)(F)c1cn(Cc2ncc(Cl)cn2)c(-c2cc(Cl)cs2)n1 [Compound 1.010] | 4 (4=61-80%) | 4 (4=61-80%) | 4 (4=61-80%) | 4 (4=61-80%) |  | 5 (5=81-100%) | 5 (5=81-100%) | 5 (5=81-100%) | 4 (4=61-80%) | 
11 | N#Cc1ccc(-c2nc(C(F)(F)F)cn2Cc2ncc(Cl)cn2)s1 [Compound 1.027] | 5 (5=81-100%) | 5 (5=81-100%) | 5 (5=81-100%) | 4 (4=61-80%) |  | 5 (5=81-100%) | 5 (5=81-100%) | 5 (5=81-100%) | 5 (5=81-100%) | 
12 | Cc1ccc(-c2nc(C(F)(F)F)cn2Cc2ncc(Cl)cn2)s1 [Compound 1.011] | 4 (4=61-80%) | 4 (4=61-80%) | 4 (4=61-80%) | 2 (2=21-40%) |  | 5 (5=81-100%) | 5 (5=81-100%) | 5 (5=81-100%) | 5 (5=81-100%) | 
13 | Fc1cc(Cl)cnc1Cn1cc(C(F)(F)F)nc1-c1ccc(Cl)s1 [Compound 1.051] | 5 (5=81-100%) | 5 (5=81-100%) | 4 (4=61-80%) | 3 (3=41-60%) |  | 5 (5=81-100%) | 5 (5=81-100%) | 5 (5=81-100%) | 4 (4=61-80%) | 
14 | FC(F)(F)c1cn(Cc2ncc(Cl)cn2)c(-c2sccc2Br)n1 [Compound 1.044] | 2 (2=21-40%) | 2 (2=21-40%) | 1 (1=0-20%) | 3 (3=41-60%) |  | 5 (5=81-100%) | 5 (5=81-100%) | 1 (1=0-20%) | 1 (1=0-20%) | 
